Experimental data reported in patent US8247565B2, “Sirtuin modulating compounds” (Sirtris Pharmaceuticals, Inc., priority 2007, dated 2012).
Structures can show the parent of a compound that is named as a salt.

How the values were obtained:
[1] = Salt/free base screening by DSC and TGA (physical stability, polymorphs); assay type: physicochemical; conditions: for polymorphism / phase changes on heating (DSC, TGA): thermal range evaluated by DSC/TGA (FIGS. 1, 2)
Protocol: Eight acceptable (Regulatory and pKa) salts were made of Compound 1, namely with hydrochloric acid, sulfuric acid, methanesulfonic acid, maleic acid, phosphoric acid, L-tartaric acid, citric acid, and malic acid. The resulting salts or the free base were then screened on: • 1) Processing, morphology, polymorphs; • 2) Crystal shape, single stable polymorph; • 3) Physical stability; • 4) Open dish accelerated stability (40° C./75% RH); and • 5) Biorelevant dissolution.
Since no other thermal transitions are observed in the DSC or TGA results, it appears Compound 1 exists only as a single phase (i.e. no polymorphs) over the thermal range evaluated.
Since the polymorphic transitions can have significant effects on dissolution and bioavailability of the drug substance, it is practical to select forms of the drug substance that minimize or eliminate the potential for phase transitions.

[2] = tested on: diet induced obesity model (DIO); test: Blood glucose in diet induced obesity (DIO) mouse model; assay type: in vivo, C57BL/6 male mice; conditions: DIO mice; for blood glucose vs vehicle: from week 2 onwards (FIGS. 3-5); for week 4 fed glucose test vs vehicle: blood glucose remained lower than vehicle
Source text: (§1) The purpose of this example was to compare the efficacy of Compound 1 in salt and free base formulations in two different mouse models of diabetes, a diet induced obesity model (DIO) and the Ob/ob mouse. Blood glucose was the main determinant through the experiment of efficacy.
For the diet induced obesity model, six week old C57BL/6 male mice (Charles River Labs) were fed a high fat diet (60% calories from fat; Research Diets) for approximately 6 weeks until their body weight reached approximately 40 g. Test compounds were administered daily via oral gavage at the indicated doses. The vehicle used was 2% HPMC and 0.2% DOSS. Individual mouse body weights were measured twice weekly. Every 2 weeks throughout the study, mice from each group were bled via the tail vein for determination of blood glucose. Statistical analysis was completed using the JMP program (Version 6). Data were analyzed by a one way ANOVA with comparison to control using a Dunnett's Test. A p value <0.05 indicated a significant difference between groups.
Compound 1 in the free base form was then tested in the DIO model.

[3] = tested on: Ob/ob mouse; test: Blood glucose in Ob/ob mouse model; assay type: in vivo; conditions: ob/ob mice, free base 100 mg/kg
Source text: as §1
Ob/ob mice are genetically manipulated knockout mice that lack leptin, an important satiety protein that neurologically signals the end of hunger. The leptin mutation is homozygous and a heterozygous strain is included as a control (Ob/+); this group should not show increased weight or blood glucose, aside from the normal effects of being on a high fat diet.
During week 1, there is already a decrease in blood glucose of almost 60 mg/dL from the vehicle group. This trend continued for the fasted glucose at week 2 (FIG. 7) as the Compound 1 group had 158.3 mg/dL glucose compared to 285.3 mg/dL glucose in the vehicle group.

SMILES: Cc1nc(-c2cccnc2)sc1C(=O)Nc1ccccc1-c1cn2c(CN3CCOCC3)csc2n1 [Compound 1, 4-methyl-N-(2-(3-(morpholinomethyl)imidazo[2,1-b]thiazol-6-yl)phenyl)-2-(pyridin-3-yl)thiazole-5-carboxamide]
- polymorphism / phase changes on heating (DSC, TGA) [1]: no polymorphs
- blood glucose vs vehicle ([2]; 100 mg/kg/day oral gavage): significant reductions in blood glucose
- blood glucose vs vehicle group at weeks 2 and 3 ([2]; free base 100 mg/kg/day, weeks 2 (fed) and 3 (fasted), p value less than 0.01): significant decrease
- decrease in blood glucose from the vehicle group ([3]; week 1 (FIG. 6)): ~60 mg/dL
- fasted blood glucose ([3]; week 2 fasted (FIG. 7), vehicle group 285.3 mg/dL, p less than 0.0001): 158.3 mg/dL
- blood glucose relative to vehicle groups ([3]; week 3 fed (FIG. 8)): significant (p<0.01) decrease

SMILES: Oc1ccc(C=Cc2cc(O)cc(O)c2)cc1 [resveratrol, reference compound]
- blood glucose vs vehicle ([2]; 1000 mg/kg/day oral gavage): significant reductions in blood glucose
- week 4 fed glucose test vs vehicle ([2]; 1000 mg/kg/day): significance was lost

SMILES: Cc1nc(-c2cccnc2)sc1C(=O)Nc1ccccc1-c1cn2c(CN3CCOCC3)csc2n1 [HCl salt form of Compound 1]
- hygroscopicity ([1]; TGA weight loss on heating attributed to water loss): hygroscopic
- polymorphism / phase changes on heating (DSC, TGA) [1]: transitions between polymorphic forms

SMILES: CN(C)C(=N)N=C(N)N [metformin, reference compound]
- blood glucose vs vehicle ([2]; 400 mg/kg/day oral gavage): significant reductions in blood glucose

SMILES: O=C(Nc1ccccc1-c1cn2c(CN3CCNCC3)csc2n1)c1cnc2ccccc2n1 [Compound 2, N-(2-(3-(piperazin-1-ylmethyl)imidazo[2,1-b]thiazol-6-yl)phenyl)quinoxaline-2-carboxamide]
- blood glucose vs vehicle ([2]; 100 mg/kg/day oral gavage): significant reductions in blood glucose
- week 4 fed glucose test vs vehicle ([2]; 100 mg/kg/day): significance was lost
